US11179348B2, “Combination comprising pterostilbene for the treatment of cancer” (FUNDACIÓN UNIVERSIDAD CATÓLICA DE VALENCIA SAN VICENTE …, priority 2015, dated 2021)
Marks after values point to notes of the source that are not given here.

Experiments:
Parameters in all cases: species or system human
Caco-2 cells = experiment: GSH levels and glutathione- and oxidative stress-related enzyme activities in Caco-2 cells growing in vivo; settings: Caco-2, in vivo Pter, day 28
Procedure: (§1) To measure enzyme activity, isolated tumor cells were homogenized in 0.1 M phosphate buffer (pH 7.2) at 4° C. GCL and GSS activities were measured as described previously (Obrador, E. et al. Hepatology 35, 74-81 (2002)). GPX (selenium dependent) activity was measured as described by Flohé and Gunzler (Flohe, L. & Gunzler, W. A. Methods Enzymol 105, 114-121 (1984)) using H2O2 as a substrate. GSR activity was determined as described by Akerboom and Sies (Akerboom, T. P. et al, Bull Eur Physiopathol Respir 17 Suppl, 221-227 (1981)). GGT activity was measured as described previously (Obrador, E. et al. Hepatology 35, 74-81 (2002)). GST activity was measured using an assay kit from Sigma. TXNRD activity, defined by the concentration of sodium-lipoate (disulfide) reduced to dehydrolipoate (dithiol) per milligram protein, was measured as previously described (Javvadi, P. et al. Cancer Res 70, 1941-1950 (2010)). SOD activity was measured as described by Flohé and Otting (Flohe, L. & Otting, F. Methods Enzymol 105, 93-104 (1984).) using 2 mM cyanide in the assay medium to distinguish mangano-type enzyme (SOD2) from the cuprozinc type (SOD1). CAT activity was analyzed as described by Aebi (Aebi, H. Methods Enzymol 105, 121-126 (1984)). NOX activity was measured by chemiluminescence following the methodology of Wind et al. (Wind, S. et al. Comparative pharmacology of chemically distinct NADPH oxidase inhibitors. Br J Pharmacol 161, 885-898 (2010)). Protein concentration was determined with the Pierce BCA protein assay (Fisher Scientific, Waltham, Mass.).
(§2) GSH, GSSG, NADP^+ and NADPH Determination.
(§3) GSH and GSSG were determined, following procedures previously described (Obrador, E. et al. PLoS One 9, e96466 (2014)), by LC/MS using the same equipment described above for pterostilbene determination. Cell processing was performed according to published methodology, where rapid N-ethylmaleimide derivatization was used to prevent GSH auto-oxidation (Asensi, M. et al. Anal Biochem 217, 323-328 (1994)). NADP^+ and NADPH were quantitated using an assay kit from Sigma (St. Louis, Mo.).
Isolation of Tumor Cells from Mouse Xenografts Using Enzymatic Digestion and a double Ficoll gradient.
To maximize the amount of isolated cells, avoiding the use of RFP-transfected cells and subsequent laser microdissection, an alternative methodology was set up. To maximize cell yield and viability the following combination of enzymes was used: collagenase III (200 U/ml; Sigma-Aldrich), DNase I (200 U/ml; Sigma-Aldrich) and trypsin (5 mg/ml; Invitrogen), and a non-enzymatic dissociation buffer (NEDB, Invitrogen). Briefly, mice were killed, and tumors were removed (avoiding skin, muscle and fat) into cold culture media and processed immediately. The tumors were minced into 1-3 mm fragments, which were then incubated with the dissociation solution (see above) for 30 min at 37° C. The tumor fragments were mixed up and down every 10 min using a […] micropipette with a tip cut to a diameter adapted to tissue fragment size. After each incubation period, the fragments were filtered through a […] nylon mesh cell strainer (BD Biosciences, San Diego, Calif., USA). The released cells were centrifuged at 1200 r.p.m. for 2 min and stored in cold CO2-independent medium with 30% FCS at […]. Fresh dissociation solution was added to the remaining tissue fragments for 30 min. Dissociation was stopped when no additional cells were released. The fragments were pushed through a sieve and all cells from all incubation periods were pooled and counted.
The dissociated cells were layered onto a double Ficoll gradient (Histopaque; Sigma-Aldrich; densities 1.077 and 1.119) and spun at 700 g for 30 min at room temperature. Cells removed from both interfaces were pooled and washed two times in CO2-independent medium and stored at 4° C. Debris and red blood cell elimination was improved with the dual-density gradient. […]

[1] = test system: PC-3 prostate adenocarcinoma; experiment: In vivo growth of PC-3 prostate cancer xenografts; settings: PC-3, day 21
[2] = test system: BxPC-3 pancreatic cancer cells; experiment: Nrf2- and redox state-related enzyme activities and metabolites in BxPC-3 cells growing in vivo; settings: BxPC-3, in vivo +Pter, day 35
Procedure: as §1, with “Mass.). […]” for “Mass.).”
Quantitative measurement of H2O2 and flow cytometry determination of O2^⋅− generation were performed as previously described (Benlloch, M. et al. J Biol Chem 281, 69-79 (2006)).
as §2, §3

For COc1cc(/C=C/c2ccc(O)cc2)cc(OC)c1 [Pter, trans-3,5-dimethoxy-4′-hydroxystilbene], the CAT (Caco-2 cells) was 0.7 ± 0.2 mU/10^6 cells, the GCL (Caco-2 cells) was 45 ± 14 mU/10^6 cells and the GSH (Caco-2 cells) was 8 ± 3 nmol/10^6 cells. For the same molecule, the GSS (Caco-2 cells) was 5.5 ± 1.9 mU/10^6 cells, the GSSG (Caco-2 cells) was 0.2 ± 0.1 nmol/10^6 cells and the SOD1 (Caco-2 cells) was 0.8 ± 0.3 U/10^6 cells. For the same molecule, the SOD2 (Caco-2 cells) was 0.04 ± 0.01 U/10^6 cells, the Tumor vol. [1] was 276 ± 74* mm^3 and the CAT [2] was 1.0 ± 0.2 mU/10^6 cells. It also gave a G6PDH [2] of 264 ± 56 mU/10^6 cells, a GCL [2] of 36 ± 15 mU/10^6 cells and a GGT [2] of 19.7 ± 3.7 mU/10^6 cells. The GPX [2] was 9.2 ± 2.0 mU/10^6 cells, the GSH [2] was 3.7 ± 1.1 nmol/10^6 cells and the GSH/GSSG [2] was 12 ± 4. The GSR [2] was 2.3 ± 0.7 mU/10^6 cells, the GSS [2] was 4.0 ± 1.3 mU/10^6 cells and the GSSG [2] was 0.3 ± 0.1 nmol/10^6 cells. It also gave a GST [2] of 3.2 ± 1.0 mU/10^6 cells, an H2O2 [2] of 1.3 ± 0.2 nmol/10^6 cells × min and an IDH [2] of 1.7 ± 0.5 U/10^6 cells. The ME [2] was 40 ± 7 mU/10^6 cells, the NADPH [2] was 0.03 ± 0.01 nmol/mg prot and the “NADPH/NADP^+” value [2] was 0.6 ± 0.2. The “NADP^+” value [2] was 0.05 ± 0.005 nmol/mg prot, the NOX [2] was 89 ± 25 R.L.U./10^6 cells and the “O2′−” value [2] was 5.9 ± 1.7 ΔFL1, a.u. For the same molecule, the SOD1 [2] was 0.1 ± 0.05 U/10^6 cells, the SOD2 [2] was 0.05 ± 0.02 U/10^6 cells and the TXN [2] was 0.2 ± 0.1 μg/10^6 cells. It also gave a TXNRD [2] of 0.8 ± 0.2 U/10^6 cells.
